Laboratory results from paper PMC3978604 (Arthritis Research & Therapy, 2013).
Where two headings read alike, the source gives them in different places.

Legend:
[1] = test system: human PBMCs, CD14+ monocytes; assay: IFNγ-induced STAT1 phosphorylation in CD14+ monocytes (flow cytometry); format: cell-based; settings: IFNγ-treated CD14+ monocytes; except at the highest concentration tested (10 μM)
Protocol: (§2) Human PBMCs were pre-incubated with compound for 30 minutes followed by 20 minutes stimulation with IL-2 (100 ng/ml) for signal transducers and activators of transcription 5 (STAT5) phosphorylation or IFNγ (100 ng/ml) for STAT1 phosphorylation.

human monocytes = assay: cells; settings: Monocyte
Protocol: Peripheral blood mononuclear cells (PBMCs) were isolated by centrifugation from heparinized blood in a Vacutainer CPT Cell Preparation Tube (BD Biosciences). PBMCs were cultured for 1 to 2 hours to allow monocytes to adhere, and nonadherent cells were washed away. The monocytes were stimulated with human IgG-coated (Jackson Immunology, West Grove, PA, USA) copolymer microsphere beads (Thermo Scientific, Fremont, CA, USA) or lipopolysaccharide (1 ng/ml; Sigma-Aldrich) for 4 hours. TNFα levels in supernatants were determined by enzyme-linked immunosorbent assay kits (BD Biosciences).

[2] = test system: human PBMCs, CD3+ T cells; assay: IL-2-induced STAT5 phosphorylation in CD3+ T cells (flow cytometry); format: cell-based; settings: for effect on phosphorylation of STAT5: at 1 μM, IL-2 stimulated CD3+ T cells
Protocol: as §2

human mast cells = assay: cells; settings: Mast cell, read-out: IC50, IgE/antigen-induced histamine release
Protocol: The method has been reported previously by our group. […] For measuring histamine release, cells were sensitized with 0.1 μg/ml anti-4-hydroxy-3-nitrophenylacetyl hapten IgE (Serotec, Raleigh, NC, USA) overnight, and then cross-linked with 1 μg/ml NP(30)-BSA (Biosearch Technologies, Novato, CA, USA) for 30 minutes. Supernatants were collected and assayed for histamine release using a histamine enzyme immunoassay (Oxford Biomedical Research, Rochester Hills, MI, USA). The percentage of histamine release was calculated by comparing various treatments with positive control.

Jurkat T-cell line = assay: Anti-CD3-induced calcium flux (FLIPR); format: cell-based; settings: Homo sapiens, read-out: IC50, T-cell receptor (anti-CD3)-induced calcium flux
[3] = test system: mouse whole blood B220+ B cells; assay: Ex vivo anti-IgD-induced CD69 expression on B220+ B cells in whole blood of dosed CIA mice; settings: 2 and 5 hours post dose
[4] = test system: mouse bone marrow macrophages; assay: RANK-L/M-CSF mediated osteoclastogenesis, TRAP+ multinuclear cells; format: cell-based; settings: in the presence of more than 0.4 μM
Protocol: Bone marrow cells were obtained from C57BL/6 mouse tibiae and suspended in culture medium supplemented with monocyte colony-stimulating factor (100 ng/ml) for 16 hours. […] The cells were stained using a tartrate-resistant acid phosphate (TRAP) staining kit (Sigma, St Louis, MO, USA). TRAP^+ multinuclear cells were counted for each well under a microscope.

Ramos B-cell line = assay: cells; settings: Homo sapiens, read-out: IC50, anti-IgM-activated calcium flux
Protocol: Baseline fluorescence was recorded for about 20 seconds followed by stimulation with mouse anti-human IgM (10 μg/ml, clone M2E6; Antibody Solutions Inc., Mountain View, CA, USA) for Ramos cells or mouse anti-human CD3 (10 μg/ml; BD Biosciences) for Jurkat cells, and the maximal fluorescent counts in each well were recorded.

JAK3 = JAK3 (Homo sapiens, UniProt P52333); assay: KINOMEscan ATP binding site competition assay; settings: 1 μM compound; truncated recombinant JAK3
[5] = test system: DBA1/J mice with collagen-induced arthritis; assay: Murine collagen-induced arthritis model (mCIA); format: in vivo, mouse
Protocol: The mCIA model has been reported previously. Briefly, DBA1/J male mice were injected intradermally with 0.1 ml bovine type II collagen (100 μg; Chondrex Inc., Redmond, WA, USA) and complete Freund’s adjuvant (200 μg; Difco, Detroit, MI, USA) followed by second immunization on day 21 with bovine type II collagen and incomplete Freund adjuvant. […] Clinical arthritis scores (1 to 4) of individual paws were assessed and the arthritic index for each mouse was determined by adding the individual scores of all four paws. The level of cytokines in serum was determined by Luminex analysis (Millipore, Billerica, MA, USA). Hind paws from CIA mice were collected into 10% neutral buffered formalin. After decalcification in 10% formic acid, paws were embedded in paraffin, sectioned at 8 μm and stained with toluidine blue. Inflammation (infiltration of inflammatory cells), pannus, cartilage damage, and bone resorption were scored in a double-blinded fashion by a board-certified pathologist at Boulder BioPATH, Inc. (Boulder, CO, USA) using standard criteria, with 0 being normal and 5 being the most severe.

Ramos cells = assay: Western blot of anti-IgM induced phosphorylation of BTK, PLCγ2, AKT and ERK; settings: 1 μM pretreatment
Text: The protein phosphorylation was detected with rabbit antibodies of anti-phospho-BTK(Y223) (Epitomics Inc., Burlingame, CA, USA), anti-phospho-PLCγ2(Y1217), anti-phospho-ERK(T202/Y204) or anti-phospho-AKT(S473).

human PBMCs = assay: cells; settings: PBMC, read-out: IC50, BCR-dependent cell surface CD69 expression in CD20+ B cells
Protocol: (§1) The samples were stained with PE mouse anti-human CD20 and APC mouse anti-human CD69. The percentage of activated (CD69^hi) B cells was determined using unstimulated (negative control) and stimulated (positive control) samples as references.

human whole blood = assay: cells; settings: B-cell, read-out: IC50, BCR-dependent cell surface CD69 expression in CD20+ B cells
Protocol: as §1

[6] = test system: human plasmacytoid dendritic cells; assay: TLR9-mediated pDC activation (ODN2216, 2 days); format: cell-based; settings: human pDCs, concentration-dependent
Protocol: Human plasmacytoid dendritic cells (pDCs) were isolated by negative selection from PBMCs with the human pDC Isolation Kit (Miltenyi Biotec, Auburn, CA, USA). The purity was confirmed with CD303 (BDCA-2; Miltenyi Biotec) staining and stimulated with ODN2216 (1 μM) for 2 days. The production of IFNα and TNFα was measured by AlphaLISA.

JAK1 = assay: KINOMEscan ATP binding site competition assay; settings: 1 μM compound; truncated recombinant JAK1
[7] = Pharmacokinetics after single oral dosing in mouse; format: in vivo; settings: plasma
human B cells = assay: TLR9-mediated plasmablast differentiation (ODN2006 + IL-2, 6 days); format: cell-based
Protocol: Human B cells were differentiated with ODN2006 (50 nM) and IL-2 (10 ng/ml) for 6 days. The differentiated cells were stained with V450 anti-CD38, FITC anti-CD20, PE anti-CD19 and APC intracellular IgM. The plasmablasts were identified as CD19^+CD38^+CD20^–IgM^+ cells. The production of IgG and IgM was quantitated by AlphaLISA.

SYK = SYK (Homo sapiens, UniProt P43405); assay: Whole blood assays of SYK inhibition; format: cell-based
[8] = test system: panel of 392 wild-type (non-mutant) protein kinases; assay: KINOMEscan ATP binding site competition assay, kinase panel selectivity; settings: including JAK and vascular endothelial growth factor receptor; data not shown

JAK3, sequence (P52333 811-1124 limits assumed): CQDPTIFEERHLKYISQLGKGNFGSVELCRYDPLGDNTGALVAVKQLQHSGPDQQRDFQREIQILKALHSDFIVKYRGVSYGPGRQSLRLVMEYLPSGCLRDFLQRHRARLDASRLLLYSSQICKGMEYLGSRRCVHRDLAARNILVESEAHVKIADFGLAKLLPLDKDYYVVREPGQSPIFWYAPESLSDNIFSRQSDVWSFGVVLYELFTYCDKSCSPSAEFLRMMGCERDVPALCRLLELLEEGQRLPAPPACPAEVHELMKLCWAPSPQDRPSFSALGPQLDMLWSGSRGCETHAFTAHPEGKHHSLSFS

Compound: Cc1ccc(Nc2cc(N[C@@H]3CCCC[C@@H]3N)nnc2C(N)=O)nc1C [RO9021, 6-[(1R,2S)-2-amino-cyclohexylamino]-4-(5,6-dimethyl-pyridin-2-ylamino)-pyridazine-3-carboxylic acid amide]
- effect on phosphorylation of STAT1 [1]: no effect
- IC50 (human monocytes; 4 h, read-out: IC50, TNFα production induced by crosslinking of FcγR): 63 ± 19 nM
- IC50 (human monocytes; read-out: IC50, TLR4-dependent TNFα production): 2900 ± 900 nM
- IC50 ([2]; Homo sapiens, T-cell, read-out: IC50, IL-2-induced STAT5 phosphorylation): 1320 ± 660 nM
- effect on phosphorylation of STAT5 [2]: no significant effect
- IC50 (human mast cells): 22.8 ± 1.7 nM
- IC50 (Jurkat T-cell line): 910 ± 270 nM
- anti-IgD-induced CD69 expression on B cells (B220+), ex vivo [3]: inhibited
- TRAP+ cells [4]: barely detectable
- IC50 (Ramos B-cell line): 78 ± 21 nM
- competition with compound (JAK3) (JAK3): more than 90%
- histopathology of hind paws (inflammation, pannus, cartilage damage, bone resorption) ([5]; 5 and 45 mg/kg orally daily for 14 days): vehicle-treated, but not RO9021-treated, mice had severe inflammation and cartilage damage
- arthritis progression, clinical scores ([5]; 5 and 45 mg/kg orally daily for 14 days from day 21, significant in both groups vs vehicle): inhibited arthritis progression in a dose-dependent manner
- serum level of IL-6 ([5]; after 14 days of treatment): markedly reduced
- serum level of KC(CXCL1) ([5]; after 14 days of treatment): markedly reduced
- anti-IgM induced phosphorylation of BTK, PLCγ2, AKT and ERK (Ramos cells): inhibited
- IC50 (human PBMCs): 83 nM
- IC50 (human whole blood): 87 nM
- production of IFNα [6]: inhibited
- production of TNFα [6]: inhibited
- competition with compound (JAK1) (JAK1): more than 90%
- AUC ([7]; single oral dose 5 mg/kg): 3.85 µM·h
- Cmax ([7]; single oral dose 5 mg/kg): 0.695 µM
- Tmax ([7]; single oral dose 5 mg/kg): 1 h
- half-life ([7]; single oral dose 5 mg/kg): 4.34 h
- AUC ([7]; single oral dose 45 mg/kg): 35.8 µM·h
- Cmax ([7]; single oral dose 45 mg/kg): 5.76 µM
- Tmax ([7]; single oral dose 45 mg/kg): 0.5 h
- half-life ([7]; single oral dose 45 mg/kg): 3.54 h
- production of IL-6 in the supernatant (human B cells): reduced
- production of IgG in the supernatant (human B cells): reduced
- production of IgM in the supernatant (human B cells): reduced

Compound: C[C@@H]1CCN(C(=O)CC#N)C[C@@H]1N(C)c1ncnc2[nH]ccc12 [tofacitinib, reference compound]
- effect on phosphorylation of STAT5 [2]: completely blocked

Compound: COc1cc(Nc2ncc(F)c(Nc3ccc4c(n3)N(COP(=O)(O)O)C(=O)C(C)(C)O4)n2)cc(OC)c1OC [R788]
- SYK inhibition in whole blood assays (SYK): relatively weak
- kinase selectivity in the KinaseScan assay [8]: inhibiting one-half of the kinome
